According to patent US20080131920A1, “Ion flux in biological processes, and methods related thereto” (priority 2005, published 2008):
Several values for one entry are separate records, joined by “and”; a condition that tells them apart may be missing. Identical values can stand only once.

How the values were obtained:
[1] = system: Vmem of Xenopus blastomeres; test: Membrane voltage imaging of blastomeres with DiBAC4(3); assay type: in vivo, Xenopus laevis; conditions: control vs treated embryos
From the text: Embryos marked with Alexa 647 dextran in the right ventral cell (RV) at the four cell stage (to allow orientation with respect to both axes) were monitored using DiBAC4(3) at the 4, 8, 16, and 32 cell stages. At 16 cells, we observed hyperpolarization of the RV quadrant, relative to the LV quadrant. DiBAC4(3) intensity on the left was greater than on the right. This pattern and its embryological timing are consistent with the self-referencing probe data, and with the hypothesis that higher net H^+ efflux from the right side results in a difference in membrane potential across the ventral midline.
We confirmed this in Xenopus blastomeres by imaging Vmem in vivo in control and concanamycin-treated embryos. Predicting that the membrane would depolarize if H^+-V-ATPase-based proton efflux was inhibited, we monitored Vmem using the voltage-reporting dye DiBAC4(3).
Bis-(1,3-[…])-trimethine oxanol (DiBAC4(3), Molecular Probes, Eugene, Oreg.) is a membrane-permeant, fluorescent molecule that accumulates inside a cell in proportion to the membrane voltage. Because it is anionic, the more depolarized a cell, the greater the accumulation of DiBAC4(3) and the greater the intensity of intracellular, relative to extracellular, fluorescence. […]. The dye was excited with 488 nm light from an argon laser and a 20 nm band of emission wavelengths centered at 515 was collected.

[2] = system: Sonic hedgehog (Shh), Nodal; test: Sidedness of Shh and Nodal expression in chick embryos (in ovo culture, in situ hybridization); conditions: in vivo
From the text: We examined the effect of inhibiting H^+-V-ATPase activity on the expression of the early left-sided marker Sonic hedgehog (Shh). Inhibition of H^+-V-ATPase activity following treatment with concanamycin or DCCD specifically randomized the expression of Shh, as well as that of and the downstream marker Nodal. Compared to controls, in which these two markers are always left-sided, concanamycin induced aberrant sidedness of Shh expression in 67% and Nodal in 24% of embryos. Thus, as in Xenopus, H^+-V-ATPase is upstream of the known asymmetric gene cascade, and is required for normal LR patterning in chicks.
To perform a pharmacological screen on chick embryos with minimal disturbance to normal morphogenesis, we optimized a chicken in ovo culture system. A small hole was made on the top of each egg (prior to incubation), and 5 ml of light albumin was removed. […]. Eggs were securely wrapped with Scotch tape, incubated at 37.5° C. to the desired stages, then fixed for analysis of laterality markers by in situ hybridization.
Whole mount in situ hybridization (WISH) on Xenopus was performed according to standard methods. DNA used to transcribe in situ hybridization probes were XNr-1 (Lohr et al., 1998, Developmental Genetics 23: 194-202; Lowe et al., 1996, Nature 381: 158-161); cShh (Levin et al., 1995, Cell 82: 803-814); cNodal (Levin et al., 1995, Cell 82: 803-814).

H3P-positive cells = test: H3P-positive proliferating cell quantification in amputated larvae; assay type: in vivo, Xenopus laevis; conditions: for Average count of H3P-positive cells / Individual counts of H3P-positive cells: medial (flank) region
From the text: To gain insight into the cellular mechanisms by which the V-ATPase participates in regeneration, we characterized the pattern of proliferating cells during regeneration, using an antibody to the phosphorylated Histone 3B—a standard marker of cells in the G2/M transition of the cell cycle, useful for identifying mitotic cells in regenerating systems including Xenopus (Saka and Smith, 2001, Dev Biol 229: 307-18; Sanchez Alvarado, 2003, Current Opinion in Genetics & Development 13: 438-444). At 24 hpa, this subset of proliferating cells is homogenously distributed throughout the growing tail (FIG. 14A). […]. […].
H3P staining marks cells in the G2/M transition of the cell cycle, and is commonly used for identifying mitotic cells in regenerating systems including Xenopus (Saka and Smith, 2001, Dev Biol 229: 307-18; Sanchez Alvarado, 2003, Current Opinion in Genetics & Development 13: 438-444). Fixed specimens at the stages indicated were processed for H3P staining as above using an alkaline-phosphatase secondary. Bleaching of the natural pigments in samples allowed easy counting of H3P-positive cells. The close-up panel to the left illustrates the distinction between purple alkaline-phosphatase signal (H3P-positive nuclei) and brown melanocytes. […] Between 4 and 6 samples were counted for each stage and each condition. Similar numbers were obtained in immunohistochemistry performed on sections as in wholemounts and in fluorescent detection (i.e., reagent penetration and chromogenic staining are not confounding factors in H3P-positive cell detection). […]

[3] = system: Xenopus tail regeneration

Question: Which results are given for C/C=C/[C@H]1O[C@@](O)([C@@H](C)[C@H](O)[C@H](C)[C@H]2OC(=O)/C(OC)=C/C(C)=C/[C@@H](C)[C@@H](O)[C@@H](CC)[C@@H](O)[C@H](C)C/C(C)=C/C=C/[C@@H]2OC)C[C@@H](O)[C@@H]1C [concanamycin]?
Answer: effect on Vmem [1]: depolarizes Vmem; aberrant sidedness of Nodal expression, % of embryos [2]: 24%; aberrant sidedness of Shh expression, % of embryos [2]: 67%; expression of Shh and Nodal (sidedness) [2]: randomized; Average count of H3P-positive cells (H3P-positive cells; 24 hpa): 51; Individual counts of H3P-positive cells (H3P-positive cells; 24 hpa): 79 and 26 and 45 and 53; Average count of H3P-positive cells (H3P-positive cells; 48 hpa): 49; Individual counts of H3P-positive cells (H3P-positive cells; 48 hpa): 39 and 58 and 51 and 46; reduction in the number of proliferating cells (H3P-positive cells; by 24 hpa, general (flank)): 3 fold; change in number of proliferating cells in the mid-flank between 24 and 48 hpa (H3P-positive cells; in vivo): does not change significantly; general toxicity ([3]; 150 nM): absence of general toxicity; effect on tail regeneration ([3]; 150 nM, larvae amputated at stage 41): strong inhibition of regeneration; effect on rate or extent of tail regeneration ([3]; compound in medium beginning immediately after tail amputation (stage 40-41)): absence of regeneration; Regeneration Index Treated/Control ([3]; tail regeneration in the compound versus control): 23%; Regeneration Index Treated ([3]; tail regeneration in the compound, RI computed for each dish of embryos): 49
